Source: patent US10508077B2 (FORMA Therapeutics, Inc., priority 2015, dated 2019)
pIC50: −log10 of the molar value.

Target: T1, Full length human recombinant HDAC8 protein (Homo sapiens, UniProt Q9BY41)
T1 construct: Full length human recombinant HDAC8 protein was expressed in baculoviral system; made in house
T1 sequence (Q9BY41 1-377): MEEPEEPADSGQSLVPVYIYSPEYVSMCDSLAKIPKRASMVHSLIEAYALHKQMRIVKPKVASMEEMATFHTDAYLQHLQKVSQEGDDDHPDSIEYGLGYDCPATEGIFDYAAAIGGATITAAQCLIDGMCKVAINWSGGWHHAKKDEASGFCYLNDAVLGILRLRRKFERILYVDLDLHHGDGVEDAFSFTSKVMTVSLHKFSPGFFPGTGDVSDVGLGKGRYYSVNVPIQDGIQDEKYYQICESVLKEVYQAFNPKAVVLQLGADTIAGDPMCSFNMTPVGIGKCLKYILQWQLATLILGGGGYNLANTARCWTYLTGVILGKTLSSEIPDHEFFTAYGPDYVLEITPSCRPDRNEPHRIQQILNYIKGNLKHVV
Experiment: In vitro histone deacetylase assay: enzymatic HDAC8 assay, electrophoretic mobility shift
Format: biochemical
Details: substrate RHKK(Ac)-NH2, 1 nM enzyme, compounds listed under IC50 range headings
Procedure, shortened: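 Baculovirus-expressed full-length human HDAC8 (1 nM) deacetylated 2 µM fluorescent RHKK(Ac)-NH2 peptide in pH 7.5 HEPES, 1% DMSO, at 25 °C, with 12 compound concentrations at 3× spacing. SDS-quenched; product and substrate resolved by microfluidic electrophoresis, P/(S+P) converted to percent inhibition, and IC50 obtained by 4-parameter fit.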

Q: With `Cn1ccnc1S(=O)(=O)NC1CCN(c2ccccc2C=CC(=O)NO)CC1` [Example I-230, (E)-N-hydroxy-3-(2-(4-((1-methyl-1H-imidazole)-2-sulfonamido)-piperidin-1-yl)phenyl)acrylamide] as the compound, how does the pIC50 read?
A: Its pIC50 is greater than 6.00.

Q: With `O=C(/C=C/c1ccccc1N1CCC(NS(=O)(=O)c2ccc3c(c2)OCCO3)CC1)NO` [Example I-231, (E)-3-(2-(4-((2,3-dihydrobenzo[b][1,4]dioxine)-6-sulfonamido)piperidin-1-yl)phenyl)-N-hydroxyacrylamide] as the compound, how does the pIC50 read?
A: Its pIC50 is greater than 6.00.

Q: How did the pIC50 turn out when `O=C(/C=C/c1ccccc1N1CCC(NS(=O)(=O)c2cccc3cnccc23)CC1)NO` [Example I-232, (E)-N-hydroxy-3-(2-(4-(isoquinoline-5-sulfonamido)piperidin-1-yl)phenyl)acrylamide] was run?
A: The pIC50 was greater than 6.00.

Q: With `COc1ccc(S(=O)(=O)NC2CCN(c3ccccc3/C=C/C(=O)NO)CC2)cc1OC` [Example I-233] as the compound, how does the pIC50 read?
A: Its pIC50 is greater than 6.00.

Q: `O=C(/C=C/c1ccccc1N1CCC(NS(=O)(=O)c2ccc(OC(F)F)cc2)CC1)NO` [Example I-234, (E)-3-(2-(4-((4-(difluoromethoxy)phenyl)sulfonamido)piperidin-1-yl)phenyl)-N-hydroxyacrylamide] was tested. Which pIC50 did it give?
A: Its pIC50 is greater than 6.00.

Q: How did the pIC50 turn out when `O=C(/C=C/c1ccccc1N1CCC(NS(=O)(=O)Cc2cccc(F)c2)CC1)NO` [Example I-235, (E)-3-(2-(4-(((3-fluorophenyl)methyl)sul-fonamido)piperidin-1-yl)phenyl)-N-hydroxyacrylamide] was run?
A: The pIC50 was greater than 6.00.

Q: With `O=C(/C=C/c1ccccc1N1CCC(NS(=O)(=O)c2ccc3c(c2)NC(=O)CO3)CC1)NO` [Example I-236, (E)-N-hydroxy-3-(2-(4-((3-oxo-3,4-dihydro-2H-benzo[b][1,4]oxazine)-6-sulfonamido)piperidin-1-yl)phenyl)acrylamide] as the compound, how does the pIC50 read?
A: The pIC50 was greater than 6.00.

Q: `Cn1cnc(S(=O)(=O)NC2CCN(c3ccccc3/C=C/C(=O)NO)CC2)c1` [Example I-237, (E)-N-hydroxy-3-(2-(4-((1-methyl-1H-imidazole)-4-sulfonamido)piperidin-1-yl)phenyl)acrylamide] was tested. Which pIC50 did it give?
A: Its pIC50 is greater than 6.00.

Q: With `COc1ccccc1S(=O)(=O)NC1CCN(c2ccccc2/C=C/C(=O)NO)CC1` [Example I-238, (E)-N-hydroxy-3-(2-(4-((2-methoxyphenyl)sulfon-amido)piperidin-1-yl)phenyl)acrylamide] as the compound, how does the pIC50 read?
A: Its pIC50 is greater than 6.00.

Q: With `O=C(/C=C/c1ccccc1N1CCC(NS(=O)(=O)Cc2ccc(Cl)cc2F)CC1)NO` [Example I-239, (E)-3-(2-(4-(((4-chloro-2-fluorophenyl)methyl)sul-fonamido)piperidin-1-yl)phenyl)-N-hydroxyacrylamide] as the compound, how does the pIC50 read?
A: The pIC50 was greater than 6.00.

Q: With `O=C(/C=C/c1ccccc1N1CCC(NS(=O)(=O)c2ccc(CNC(=O)c3ccccc3)s2)CC1)NO` [Example I-240, (E)-N-((5-(N-(1-(2-(3-(hydroxyamino)-3-oxoprop-1-en-1-yl)phenyl)piperidin-4-yl)sulfamoyl)thiophen-2-yl)methyl)benzamide] as the compound, how does the pIC50 read?
A: Its pIC50 is greater than 6.00.

Q: How did the pIC50 turn out when `O=C(/C=C/c1ccccc1N1CCC(NS(=O)(=O)C2CC2)CC1)NO` [Example I-241] was run?
A: The pIC50 was greater than 6.00.

Q: How did the pIC50 turn out when `COc1ccc(OC)c(S(=O)(=O)NC2CCN(c3ccccc3/C=C/C(=O)NO)CC2)c1` [Example I-242, (E)-3-(2-(4-((2,5-dimethoxyphenyl)sulfon-amido)piperidin-1-yl)phenyl)-N-hydroxyacrylamide] was run?
A: The pIC50 was greater than 6.00.

Q: How did the pIC50 turn out when `Cc1nn(C)c(Cl)c1S(=O)(=O)N1CCN(c2ccccc2/C=C/C(=O)NO)CC1` [Example I-243, (E)-3-(2-(4-((5-chloro-1,3-dimethyl-1H-pyrazol-4-yl)sulfonyl)piperazin-1-yl)phenyl)-N-hydroxyacrylamide] was run?
A: Its pIC50 is greater than 6.00.

Q: `Cn1ccc(S(=O)(=O)N2CCN(c3ccccc3/C=C/C(=O)NO)CC2)n1` [Example I-244, (E)-N-hydroxy-3-(2-(4-((1-methyl-1H-pyrazol-3-yl)sulfonyl)piperazin-1-yl)phenyl)acrylamide] was tested. Which pIC50 did it give?
A: Its pIC50 is greater than 6.00.

Q: `Cc1noc(C)c1S(=O)(=O)N1CCN(c2ccccc2/C=C/C(=O)NO)CC1` [Example I-245, (E)-3-(2-(4-((3,5-dimethylisoxazol-4-yl)sulfonyl)piperazin-1-yl)phenyl)-N-hydroxyacrylamide] was tested. Which pIC50 did it give?
A: Its pIC50 is greater than 6.00.

Q: With `Cc1ccccc1S(=O)(=O)N1CCN(c2ccccc2/C=C/C(=O)NO)CC1` [Example I-247, (E)-N-hydroxy-3-(2-(4-(o-tolylsulfonyl)piperazin-1-yl)phenyl)acrylamide] as the compound, how does the pIC50 read?
A: Its pIC50 is greater than 6.00.

Q: `O=C(/C=C/c1ccccc1N1CCN(S(=O)(=O)c2ccc(C(F)(F)F)nc2)CC1)NO` [Example I-248, (E)-N-hydroxy-3-(2-(4-((6-(trifluoromethyl)pyridin-3-yl)sulfonyl)piperazin-1-yl)phenyl)acrylamide] was tested. Which pIC50 did it give?
A: Its pIC50 is greater than 6.00.

Q: With `CC(C)S(=O)(=O)N1CCN(c2ccccc2/C=C/C(=O)NO)CC1` [Example I-249, (E)-N-hydroxy-3-(2-(4-(isopropylsulfonyl)piper-azine-1-yl)phenyl)acrylamide] as the compound, how does the pIC50 read?
A: Its pIC50 is greater than 6.00.

Q: How did the pIC50 turn out when `O=C(/C=C/c1ccccc1N1CCN(S(=O)(=O)C2CCCC2)CC1)NO` [Example I-250] was run?
A: The pIC50 was greater than 6.00.

Q: With `O=C(/C=C/c1ccccc1N1CCN(S(=O)(=O)Cc2ccc(F)cc2)CC1)NO` [Example I-251, (E)-3-(2-(4-((4-fluorobenzyl)sulfonyl)pi-perazin-1-yl)phenyl)-N-hydroxyacrylamide] as the compound, how does the pIC50 read?
A: The pIC50 was greater than 6.00.

Q: With `O=C(/C=C/c1ccccc1N1CCN(S(=O)(=O)c2ccc(Cl)s2)CC1)NO` [Example I-253, (E)-3-(2-(4-((5-chlorothiophen-2-yl)sulfonyl)piperazin-1-yl)phenyl)-N-hydroxyacrylamide] as the compound, how does the pIC50 read?
A: Its pIC50 is greater than 6.00.

Q: How did the pIC50 turn out when `O=C(/C=C/c1ccccc1N1CCN(S(=O)(=O)c2cccc3cnccc23)CC1)NO` [Example I-254, (E)-N-hydroxy-3-(2-(4-(isoquinolin-5-ylsulfonyl)piperazin-1-yl)phenyl)acrylamide] was run?
A: The pIC50 was greater than 6.00.

Q: With `O=C(/C=C/c1ccccc1N1CCN(S(=O)(=O)C2CCOCC2)CC1)NO` [Example I-255, (E)-N-hydroxy-3-(2-(4-((tetrahydro-2H-pyran-4-yl)sulfonyl)piperazin-1-yl)phenyl)acrylamide] as the compound, how does the pIC50 read?
A: The pIC50 was greater than 6.00.

Q: How did the pIC50 turn out when `COc1ccc(S(=O)(=O)N2CCN(c3ccccc3/C=C/C(=O)NO)CC2)cc1OC` [Example I-256, (E)-3-(2-(4-((3,4-dimethoxyphenyl)sulfonyl)piperazin-1-yl)phenyl)-N-hydroxyacrylamide] was run?
A: Its pIC50 is greater than 6.00.

Q: With `O=C(/C=C/c1ccccc1N1CCN(S(=O)(=O)Cc2cccc(F)c2)CC1)NO` [Example I-257, (E)-3-(2-(4-((3-fluorobenzyl)sulfonyl)piperazin-1-yl)phenyl)-N-hydroxyacrylamide] as the compound, how does the pIC50 read?
A: Its pIC50 is greater than 6.00.

Q: How did the pIC50 turn out when `Cn1cnc(S(=O)(=O)N2CCN(c3ccccc3/C=C/C(=O)NO)CC2)c1` [Example I-258, (E)-N-hydroxy-3-(2-(4-((1-methyl-1H-imidazol-4-yl)sulfonyl)piperazin-1-yl)phenyl)acrylamide] was run?
A: Its pIC50 is greater than 6.00.

Q: How did the pIC50 turn out when `O=C(/C=C/c1ccccc1N1CCN(S(=O)(=O)Cc2ccc(Cl)cc2F)CC1)NO` [Example I-259, (E)-3-(2-(4-((4-chloro-2-fluorobenzyl)sulfonyl)pi-perazin-1-yl)phenyl)-N-hydroxyacrylamide] was run?
A: The pIC50 was greater than 6.00.

Q: How did the pIC50 turn out when `O=C(/C=C/c1ccccc1N1CCN(S(=O)(=O)C2CC2)CC1)NO` [Example I-260, (E)-3-(2-(4-(cyclopropylsulfonyl)piperazin-1-yl)phenyl)-N-hydroxyacrylamide] was run?
A: The pIC50 was greater than 6.00.
